One assay has as its system mice. Nature of the assay: animal or person. It counts as in vivo. To be noted: Mus musculus, read-out: ED50 (dose effective in 50 percent of the treated mice), analgetic effect.
In assay [1] the test system is depressant action of tetrabenazine in mice. Nature of the assay: anti-depressant effect: antagonism of the depressant action of tetrabenazine in mice. The settings on record: Mus musculus, read-out: ED50 (dose effective in 50 percent of the treated mice), anti-depressant effect. The assay is classed as in vivo.
Experimental: The anti-depressant effect of some compounds of this invention was assessed by their ability to antagonize the depressant action of tetrabenazine (2-oxo-3-isobutyl-9,10-dimethoxy- 1,2,3,4,6,7 -hexahydro-11bH-benzo[a]quinolizine) in mice [Englehardt et al. J. Med. Chem. 11 (2), 325 (1968)].

Counter-ions that a name gives are not always drawn. Like-named read-outs stand apart in the source and are kept apart here.

Broadly, the ED50 is the midpoint of the dose-response relation. Take `CCC(=O)O[C@](Cc1ccccc1)(c1ccccc1)[C@H](C)CN(C)C` [Darvon®, reference compound]: the ED50 with mice came to 11.2 mg/kg.

Consider `CCOC(=O)C1(c2ccccc2)CCN(C)CC1` [Demerol®, reference compound], for which the ED50 in the assay with mice amounted to 6.4 mg/kg.

With `CN(C)CCC=C1c2ccccc2CCc2ccccc21` [Elavil®, reference compound], the ED50 in assay [1] (mice, antagonism of depressant action of tetrabenazine) was found to be 1.1 mg/kg.

In the case of `CCC(=O)N(c1ccccc1OC)C1CCN(CCOc2ccccc2)C1` (stereo not drawn) [Example 4, 1-(2-phenoxethyl)-3-[N-(2-methoxyphenyl)propionamido]pyrrolidine], in the assay with mice, the ED50 was found to be 6.8 mg/kg.

Consider `C=CCN1CCC(N(C(=O)CC)c2ccccc2)C1` (stereo not drawn) [Example 5], for which the ED50 with mice turned out to be 8 mg/kg.

With `CN1CCC(N(C(=O)c2ccc(Cl)cc2)c2ccccc2)C1` (stereo not drawn) [Example 15, 1-methyl-3-[N-phenyl-(4-chlorobenzamido)]pyrrolidine fumarate], the results for the median effective dose (ED50) (in the assay on mice; in assay [1]) were 5.2 mg/kg and 0.6 mg/kg, respectively.

As for `CCC(=O)N(c1ccccc1)C1CCN(CCOc2ccccc2)C1` (stereo not drawn) [Example 17, 1-(2-phenoxyethyl)-3-(N-phenylpropionamido)pyrrolidine hydrochloride], the ED50 with mice was found to be 14.2 mg/kg.

Turning to `CCC(=O)N(c1ccccc1)C1CCN(CCOc2ccccc2OC)C1` (stereo not drawn) [Example 18, 1-[2-(2-methoxyphenoxy)ethyl]-3-(N-phenylpropionamido)-pyrrolidine], the ED50 in the assay on mice amounted to 3.4 mg/kg.

As for `CN1CCC(N(C(=O)c2ccccc2)c2ccccc2)C1` (stereo not drawn) [Example 29], the median effective dose (ED50) in assay [1] was found to be 1.7 mg/kg.

For `CN1CCC(N(C(=O)COc2ccc(Cl)cc2)c2ccccc2)C1` (stereo not drawn) [Example 31], the ED50 with mice turned out to be 16.5 mg/kg.

Turning to `CN1CCC(N(C(=O)c2cccc(C(F)(F)F)c2)c2ccccc2)C1` (stereo not drawn) [Example 36], the ED50 in assay [1] came to 2.8 mg/kg.

In the case of `CN1CCC(N(C(=O)c2cccc(Cl)c2)c2ccccc2)C1` (stereo not drawn) [Example 37], in assay [1], the ED50 is 2.8 mg/kg.

Take `CN1CCC(N(C(=O)c2ccc(F)cc2)c2ccccc2)C1` (stereo not drawn) [Example 38]: in assay [1], the ED50 stood at 4.8 mg/kg.

Regarding `CN1CCC(N(C(=O)c2ccc(Br)cc2)c2ccccc2)C1` (stereo not drawn) [Example 40], the 50% effective dose (ED50) in assay [1] was 15.5 mg/kg.

Regarding `O=C(c1ccccc1)N(c1ccccc1)C1CCN(Cc2ccccc2)C1` (stereo not drawn) [Example 41], in assay [1], the median effective dose (ED50) was found to be 4.9 mg/kg.

On to `O=C(c1ccccc1)N(c1ccccc1)C1CCNC1` (stereo not drawn) [Example 42], for which the ED50 in assay [1] came to 2.4 mg/kg.

As to `CCN1CCC(N(C(=O)c2ccccc2)c2cccc(C(F)(F)F)c2)C1` (stereo not drawn) [Example 44], the ED50 in assay [1] was found to be 2 mg/kg.

Take `CCN1CCC(N(C(=O)c2ccc(Cl)cc2)c2ccc(Cl)cc2)C1` (stereo not drawn) [Example 47]: the ED50 in assay [1] came to 4.9 mg/kg.

For `CCN1CCC(N(C(=O)c2ccc(Cl)cc2)c2ccccc2)C1` (stereo not drawn) [Example 48], the ED50 in assay [1] stood at 0.6 mg/kg.

For the compound `CN(C)CCCN1c2ccccc2CCc2ccccc21` [Tofranil®, reference compound], in assay [1], the median effective dose (ED50) was 1.3 mg/kg.
